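Values below derive from 48-hour exposures of cells grown in 96-well plates, with endpoints linearly interpolated between the two concentrations bracketing the appropriate inhibition level. Abbreviation: GI50, concentration required for 50% inhibition of growth.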 The source made the active and inactive calls. Cut-off read from the data, not from the text of the source: active = GI50 up to about 1.1 µM and inactive = higher.
Tests used:
Experiment in all cases: DTP human tumour cell line panel, 48 h
DLD-1 = test system: DLD-1
SNB-78 = test system: SNB-78
RXF 631 = test system: RXF 631
DMS-114 = test system: DMS-114
XF498 = test system: XF498
KM-20L2 = test system: KM-20L2
HOP-18 = test system: HOP-18
DMS-273 = test system: DMS-273
M19-MEL = test system: M19-MEL

Compound | GI50 (DLD-1) | GI50 (SNB-78) | GI50 (RXF 631) | GI50 (DMS-114) | GI50 (XF498) | GI50 (KM-20L2) | GI50 (HOP-18) | GI50 (DMS-273) | GI50 (M19-MEL)
CCOC(=O)C1N(S(=O)(=O)c2ccc(C)cc2)CCC12C(c1ccc(OC)c(OC)c1)=Nc1ccccc12 (stereo not given) | > 100 µM (inactive) | > 100 µM (inactive) | > 100 µM (inactive) | > 100 µM (inactive) | 30.1 µM (inactive) | > 100 µM (inactive) | > 100 µM (inactive) | > 100 µM (inactive) | > 100 µM (inactive)
N#Cc1c2nc3ccccc3nc2n2ccc3ccccc3c12 | > 100 µM (inactive) | > 100 µM (inactive) | – | > 100 µM (inactive) | – | – | > 100 µM (inactive) | > 100 µM (inactive) | > 100 µM (inactive)
CC1(c2cccc3c2C2(O)C=CC4(CCC32)OCCO4)OCCO1 (stereo not given) | > 100 µM (inactive) | > 100 µM (inactive) | – | > 100 µM (inactive) | – | > 100 µM (inactive) | > 100 µM (inactive) | > 100 µM (inactive) | > 100 µM (inactive)
COc1cc2ccc(CC#N)cc2cc1OC | > 100 µM (inactive) | > 100 µM (inactive) | > 100 µM (inactive) | > 100 µM (inactive) | > 100 µM (inactive) | > 100 µM (inactive) | – | > 100 µM (inactive) | > 100 µM (inactive)
CCN(CC)CCN(C)CC(C)(C)C(=O)/C=C/c1ccccc1 | 5.46 µM (inactive) | – | – | 6.58 µM (inactive) | 12.4 µM (inactive) | 11.1 µM (inactive) | 15.9 µM (inactive) | 13 µM (inactive) | 11.6 µM (inactive)
CC(=O)N/C(=C\c1cccc([N+](=O)[O-])c1)c1nc2ccc3c(c2[nH]1)C(=O)c1ccccc1C3=O | 12.2 µM (inactive) | > 57.9 µM (inactive) | 32.6 µM (inactive) | > 37.5 µM (inactive) | 52.5 µM (inactive) | > 100 µM (inactive) | – | – | > 100 µM (inactive)
COc1ccc(C2Oc3cc(OC)c(OC)cc3C2CCl)cc1OC (stereo not given) | 67.5 µM (inactive) | – | – | > 100 µM (inactive) | > 100 µM (inactive) | > 100 µM (inactive) | – | > 100 µM (inactive) | > 100 µM (inactive)
CCOC(=O)C(=O)C(C#N)c1ccc(Cl)cc1 (stereo not given) | > 100 µM (inactive) | > 100 µM (inactive) | – | > 100 µM (inactive) | > 100 µM (inactive) | > 100 µM (inactive) | – | > 100 µM (inactive) | > 100 µM (inactive)
CCOC(=O)NC(=O)c1c[nH]c(=O)[nH]c1=O | > 100 µM (inactive) | > 100 µM (inactive) | > 100 µM (inactive) | > 100 µM (inactive) | > 100 µM (inactive) | > 100 µM (inactive) | > 100 µM (inactive) | > 100 µM (inactive) | > 100 µM (inactive)
COc1ccc2c(c1)CC1c3c(ccc(OC)c3O)CC2N1C (stereo not given) | 68.5 µM (inactive) | 24.3 µM (inactive) | 22.6 µM (inactive) | 19.7 µM (inactive) | 21.3 µM (inactive) | 28.4 µM (inactive) | 71.1 µM (inactive) | 22.4 µM (inactive) | 23 µM (inactive)
N#Cc1cccc(/C=N/N/C(N)=N/O)c1 | 53.2 µM (inactive) | > 100 µM (inactive) | – | – | 23.8 µM (inactive) | – | 15.7 µM (inactive) | > 100 µM (inactive) | > 100 µM (inactive)
CC1=C(CO)C(=O)OC(C(C)C2CCC3C4CC5OC56C(O)C(N5CC5)=CC(=O)C6(C)C4CCC23C)C1 (stereo not given) | 4.93 µM (inactive) | 5.61 µM (inactive) | 11.5 µM (inactive) | 2.13 µM (inactive) | 5.3 µM (inactive) | 3.05 µM (inactive) | – | 5.65 µM (inactive) | 11.4 µM (inactive)
CN(C)c1ccc(/C=c2\sc3nnc(Cc4ccccc4)n3c2=O)cc1 | > 10 µM (inactive) | > 10 µM (inactive) | – | 17 µM (inactive) | > 10 µM (inactive) | > 10 µM (inactive) | > 10 µM (inactive) | 33.7 µM (inactive) | > 100 µM (inactive)
CCOC(=O)CC(=O)ON(C)C(C)=O | > 100 µM (inactive) | > 100 µM (inactive) | – | > 100 µM (inactive) | > 100 µM (inactive) | > 100 µM (inactive) | – | – | > 100 µM (inactive)
C[Si](C)(C)C(Sc1ccccc1)(Sc1ccccc1)Sc1ccccc1 | 53.6 µM (inactive) | > 100 µM (inactive) | – | 54.8 µM (inactive) | 30.8 µM (inactive) | 67.1 µM (inactive) | – | > 100 µM (inactive) | 34.7 µM (inactive)
CC(C)N(C(=O)c1cccc(C(=O)N(C(C)C)C(C)C)c1)C(C)C | > 100 µM (inactive) | > 100 µM (inactive) | > 100 µM (inactive) | > 100 µM (inactive) | > 100 µM (inactive) | > 100 µM (inactive) | > 100 µM (inactive) | > 100 µM (inactive) | > 100 µM (inactive)
Cc1cccc(NC(=O)c2c(N)[n+]([O-])c3ccccc3[n+]2[O-])c1 | 11.7 µM (inactive) | 11.9 µM (inactive) | 1.77 µM (inactive) | – | 11.4 µM (inactive) | 16.6 µM (inactive) | 18.2 µM (inactive) | 9.51 µM (inactive) | 8.97 µM (inactive)
CCCCN(CCCC)c1c([N+](=O)[O-])c(=O)nc2ccccn12 | 35.4 µM (inactive) | 48.2 µM (inactive) | 23.4 µM (inactive) | 21.7 µM (inactive) | 32.2 µM (inactive) | 27.4 µM (inactive) | – | – | 8.67 µM (inactive)
N=C(N)NS(=O)(=O)c1ccc(NCCc2c3ccccc3nc3ccccc23)cc1 | > 100 µM (inactive) | – | 35.5 µM (inactive) | 28.3 µM (inactive) | – | > 100 µM (inactive) | – | 72.4 µM (inactive) | > 100 µM (inactive)
CNC(=S)NC(=S)N(C)C | 5.48 µM (inactive) | > 100 µM (inactive) | > 100 µM (inactive) | 64.9 µM (inactive) | > 100 µM (inactive) | > 100 µM (inactive) | > 100 µM (inactive) | 0.869 µM (active) | –
CC(C)Cc1ccc(C(C)/C=C2\CCC(CN3CCCC3)C2=O)cc1 (stereo not given) | 2.55 µM (inactive) | 19.4 µM (inactive) | 20.2 µM (inactive) | 3.8 µM (inactive) | 8.73 µM (inactive) | 14.4 µM (inactive) | 19.2 µM (inactive) | 4.5 µM (inactive) | 3.84 µM (inactive)
O=C(CC1(O)C(=O)Nc2c(Cl)cc(Cl)cc21)c1ccc2ccccc2c1 (stereo not given) | 11.6 µM (inactive) | 16.8 µM (inactive) | 7.08 µM (inactive) | 4.69 µM (inactive) | 11.6 µM (inactive) | 3.56 µM (inactive) | 13.3 µM (inactive) | 3.72 µM (inactive) | 4.49 µM (inactive)
CCC12CCCN(Cc3ccccc3)C1c1c(n(C)c3ccccc13)C(CO)C2 (stereo not given) | 61.5 µM (inactive) | – | 56 µM (inactive) | 37.8 µM (inactive) | 43.3 µM (inactive) | 29.3 µM (inactive) | – | 46.5 µM (inactive) | 59 µM (inactive)
Cc1cc(C)nc(NS(=O)(=O)c2ccc(NC(=O)c3ccc(Cl)c4c(Nc5ccc(S(=O)(=O)N=C(N)N)cc5)c5ccccc5nc34)cc2)n1 | 7.67 µM (inactive) | > 100 µM (inactive) | – | 29.9 µM (inactive) | > 100 µM (inactive) | 50.2 µM (inactive) | > 100 µM (inactive) | 33.5 µM (inactive) | –
CN(CC#N)C1CCCC[C@H]1O (stereo not given in full) | > 100 µM (inactive) | > 100 µM (inactive) | – | > 100 µM (inactive) | > 100 µM (inactive) | > 100 µM (inactive) | > 100 µM (inactive) | > 100 µM (inactive) | –
COC(=O)C1=C(C(=O)OC)C2(OC(C)=O)c3ccccc3-c3ccccc3C12 (stereo not given) | 1.7 µM (inactive) | 4.95 µM (inactive) | – | 5.37 µM (inactive) | 12.4 µM (inactive) | 6.15 µM (inactive) | 5.2 µM (inactive) | 4.98 µM (inactive) | 4.56 µM (inactive)
